Reference: patent publication US20070049535A1, “PREVENTIVE/REMEDY FOR DIABETIC COMPLICATIONS USING OLIGOPEPTIDE” (priority 2004, published 2007)
Where two headings read alike, the source gives them in different places. Peptide text beside a SMILES is read from it.

Key:
[1] = test system: AGE2 production by glyceraldehyde and bovine serum albumin; assay: Inhibition of AGE2 production by glyceraldehyde and serum albumin (ELISA with anti-AGE2 polyclonal antibody); conditions: read-out: IC50 of inhibition of AGE2 production; 10 mM glyceraldehyde, 10 mg/ml bovine serum albumin, phosphate buffer pH 7.4, 37° C., 3 days
Procedure: (§1) Three days later, AGE2 concentration of the reaction mixture was measured, and IC50 value of inhibition of AGE2 production by each peptide or amino acid was calculated. The AGE2 measurement was performed by the ELISA method using an anti-AGE2 polyclonal antibody prepared from rabbit, according to a conventional method.

[2] = test system: AGE2 production by glyceraldehyde and bovine serum albumin; conditions: pH 7.4
Procedure: as §1

[3] = AGE2-producing capability by reaction of oligopeptide with glyceraldehyde (ELISA with anti-AGE2 polyclonal antibody); type: biochemical; conditions: for AGE2 concentration: 10 mM amino acid or peptide + 100 mM glyceraldehyde, 0.1M phosphate buffer pH 7.4, 37° C., 1 week
Procedure: To 0.1M phosphate buffer (pH 7.4) containing 10 mM of any of Lys, Lys-Lys, Lys-Lys-Lys, and Lys-Lys-Lys-Lys (SEQ ID NO: 1) was added 100 mM glyceraldehyde and the mixture was reacted at 37° C. for 1 week. One week later, the AGE2 concentration of the reaction mixture was measured.

serum AGE2 = assay: Serum AGE2 concentration reduction in diabetic mouse model (db/db mouse); type: in vivo; conditions: db/db mice
Procedure: 7-Week-old male db/db mice were randomly divided into 4 groups (3 per group), distilled water, 10 mM Lys-Lys solution, 30 mM Lys-Lys solution, or 100 mM Lys-Lys solution was freely given for 10 days as drinking water, blood samples were collected from the heart, and the serum AGE2 concentration was measured.

| SMILES | IC50 [1] | IC50 ([2]; bovine, 3 days) | AGE2 concentration [3] | also measured |
| --- | --- | --- | --- | --- |
| N=C(N)NCCC[C@H](N)C(=O)O [Arg, reference compound] | 1900 µM |  |  |  |
| NCCCC[C@H](NC(=O)[C@@H](N)CCCN=C(N)N)C(=O)O [Arg-Lys] (H-Arg-Lys-OH) |  | 780 µM |  |  |
| NCCCC[C@H](N)C(=O)O [Lys, reference compound] |  |  | 0.47 U/ml | IC50 [2]: 2200 µM |
| NCCCC[C@H](NC(=O)[C@H](CCCCN)NC(=O)[C@H](CCCCN)NC(=O)[C@@H](N)CCCCN)C(=O)O [Lys-Lys-Lys-Lys] (H-KKKK-OH) | 620 µM |  | 14.2 U/ml |  |
| NCCCC[C@H](NC(=O)[C@@H](N)CCCCN)C(=O)O [Lys-Lys] |  | 560 µM | 4.7 U/ml | serum AGE2 concentration (serum AGE2; 10 mM solution as drinking water for 10 days): 3.5 ± 0.6 U/ml; serum AGE2 concentration (serum AGE2; 30 mM solution as drinking water for 10 days): 2.3 ± 0.4 U/ml; serum AGE2 concentration (serum AGE2; 100 mM solution as drinking water for 10 days): 1.7 ± 0.2 U/ml; serum AGE2 concentration, dose dependence (serum AGE2; 10-100 mM solution as drinking water for 10 days): decreased in a manner dependent on the Lys-Lys concentration; AGE2 production capacity relative to Lys alone ([3]; reaction with glyceraldehyde, versus Lys alone): about 10 times |
